What was measured:
[1] = system: T-Rex 293 cell line SC3 cells having increased expression of androgen receptor protein due to exposure to doxycycline; test: Cellular growth inhibition, T-Rex 293 SC3 cells with doxycycline-induced androgen receptor (CellTiter-Glo 2.0, 72 hours); assay type: cell-based; details: T-Rex 293 SC3 cells with 10 ng/ml doxycycline (increased androgen receptor expression), 72 hours, CellTiter-Glo 2.0
Protocol: (§1) Ability of the test compounds to inhibit proliferation of the foregoing cell types was evaluated according to the procedures set forth below.
(§2) The doxycycline-inducible androgen receptor protein expressing cell line was established using the following protocol: T-Rex 293 cells were purchased from Invitrogen (Cat #R71007) and transfected using Lipofectamine 2000 with the wild-type androgen receptor protein sequence cloned into the pcDNA4/TO vector. Transfected cells were selected using 400 μg/mL Zeocin (Invitrogen Cat #R25001). Following selection, single clones were raised and maintained in Dulbecco's Modified Eagle Medium (DMEM) supplemented with 10% w/w Tetracycline-free fetal bovine serum (FBS) and 250 μg/mL Zeocin. Clones were analyzed for expression of androgen receptor protein in the presence and absence of 10 ng/ml doxycycline (Sigma Cat #D9891), and a single doxycycline-inducible clone (hereinafter “SC3”) was selected for use in downstream assays.
(§3) The SC3 cells were seeded on poly-D-lysine coated, black clear-bottom 384-well plates at 2500/well, in 25 μL Phenol Red Free Dulbecco's Modified Eagle Medium (DMEM) supplemented with 10% w/w charcoal-dextran treated fetal bovine serum (FBS) and 1% w/w pen-strep, with or without 10 ng/ml doxycycline. Pen-Strep is a commercially available mixture of penicillin G and streptomycin, which is used in mammalian cell culture media to prevent bacterial contamination. Phenol Red Free Dulbecco's Modified Eagle Medium (DMEM) supplemented with 10% w/w charcoal-dextran treated fetal bovine serum (FBS) and 1% w/w pen-strep, with or without 10 ng/mL doxycycline is herein referred to as Treatment Medium. Following seeding of cells in the plates, the plates were spun at 300×g for 30 seconds, then equilibrated to room temperature for 30 minutes, and then deposited in a humidified tissue culture incubator maintained at 37° C. with 5% CO2.
(§4) At 24 hours after seeding of the cells, dilutions of test compound were prepared in DMSO and dissolved in Treatment Medium, to achieve a final DMSO concentration of 0.5% w/w, thereby providing the Test Compound Solution. A 25 μL aliquot of the Test Compound Solution was added to cells in the well plates. An equal volume of a solution containing DMSO and Treatment Medium was used as a negative control. Following treatment of cells with Test Compound Solution or said equal volume of a solution containing DMSO and Treatment Medium, the plates were spun at 300×g for 30 seconds, and then left in an incubator for 72 hours.
(§5) At the end of the treatment duration, cell viability was quantified with CellTiter-Glo 2.0 reagent (Promega Cat #G9243). For this purpose, plates were equilibrated to room temperature for 30 minutes, and then 25 μL of CellTiter-Glo 2.0 reagent was added to cells in the plate wells. Plates were then agitated on a shaker for two minutes at 500 rpm and subsequently incubated at room temperature for 10 minutes. Following incubation, the plates were spun at 3000×g for 30 seconds, then sealed with an optical adhesive cover, and luminescence readings were measured with an En Vision Plate Reader.
(§6) Data was normalized using zero luminescence for baseline. A four-parameter non-linear regression curve fit was applied to dose-response data in GraphPad Prism data analysis software to determine the half-maximal growth inhibitory concentration (GI50) for each test compound.

VCaP cells = test: Cellular growth inhibition assay for VCaP cells (CellTiter-Glo 2.0, 72 hours); assay type: cell-based, human; details: CellTiter-Glo 2.0
Protocol: Exemplary compounds were tested for ability to inhibit the proliferation of VCaP cells. VCap cells are a commercially available human prostate cancer cell line.
VCaP cells were purchased from American Type Cell Culture (ATCC Cat #CRL2876) and then seeded on poly-D-lysine coated, black clear-bottom 384-well plates at 5000/well in 25 μL Dulbecco's Modified Eagle Medium (DMEM) supplemented with 10% w/w Fetal bovine serum (FBS) and 1% w/w Pen-Strep. Pen-Strep is a commercially available mixture of penicillin G and streptomycin, which is used in mammalian cell culture media to prevent bacterial contamination. Dulbecco's Modified Eagle Medium (DMEM) supplemented with 10% w/w fetal bovine serum (FBS) and 1% w/w Pen-Strep is herein referred to as Treatment Medium. Following seeding of cells in the plates, the plates were spun at 300×g for 30 seconds, then equilibrated to room temperature for 30 minutes, and then deposited in a humidified tissue culture incubator maintained at 37° C. with 5% CO2.
as §4, §5, §6

[2] = system: T-Rex 293 cell line SC3 cells lacking increased expression of androgen receptor protein; test: Cellular growth inhibition, T-Rex 293 SC3 cells without doxycycline (CellTiter-Glo 2.0, 72 hours); assay type: cell-based; details: T-Rex 293 SC3 cells not exposed to doxycycline (no increased androgen receptor expression)
Protocol: as §1, §2, §3, §4, §5, §6

Row | SMILES | GI50 [1] [nM] | GI50 (VCaP cells; Homo sapiens, VCaP, 72 h) [nM] | GI50 ([2]; 72 h) [nM] | GI50 (VCaP cells; 72 hours) [nM] | GI50 [2] [nM]
1 | COc1cc(O[C@H]2CC[C@H](NC(=O)c3ccc(N4CC5(CC(C#Cc6ccc(C7=NC(Cc8ncco8)c8nnc(C)n8-c8sc(C)c(C)c87)c(F)c6)C5)C4)nn3)CC2)ccc1C#N (stereo partly drawn) [Compound I-112] | < 500 | < 500 | > 3000 |  | 
2 | COc1cc(O[C@H]2CC[C@H](NC(=O)c3ccc(N4CC5(CC(C#Cc6ccc(C7=N[C@@H](C)c8nnc(C)n8-c8sc(C)c(C)c87)cc6)C5)C4)nn3)CC2)ccc1C#N [Compound I-40, N-[4-(4-cyano-3-methoxy-phenoxy)cyclohexyl]-6-[6-[2-[4-[(9S)-4,5,9,13-tetramethyl-3-thia-1,8,11,12-tetrazatricyclo[8.3.0.0^2,6]trideca-2 (6),4,7,10,12-pentaen-7-yl]phenyl]ethynyl]-2-azaspiro[3.3]heptan-2-yl]pyridazine-3-carboxamide] | < 500 | < 500 | < 500 |  | 
3 | COc1cc(O[C@H]2CC[C@H](NC(=O)c3ccc(N4CCC5(CCC(c6ccc(C7=N[C@@H](C)c8nnc(C)n8-c8sc(C)c(C)c87)c(C)c6)CC5)C4)nn3)CC2)ccc1C#N (stereo partly drawn) [Compound I-63] | < 500 | < 500 | < 500 |  | 
4 | COc1cc(O[C@H]2CC[C@H](NC(=O)c3ccc(N4CCC5(CCCN(c6ccc(C7=N[C@@H](C)c8nnc(C)n8-c8sc(C)c(C)c87)cc6)C5)C4)nn3)CC2)ccc1C#N (stereo partly drawn) [Compound I-99] | < 500 |  |  | < 500 | < 500
5 | COc1cc(O[C@H]2CC[C@H](NC(=O)c3ccc(N4CCC5(CCN(c6ccc(C7=N[C@@H](C)c8nnc(C)n8-c8sc(C)c(C)c87)cc6)CC5)C4)cc3)CC2)ccc1C#N [Compound I-55] | < 500 | < 500 | < 500 |  | 
6 | COc1cc(O[C@H]2CC[C@H](NC(=O)c3ccc(N4CCC5(CCC(c6ccc(C7=N[C@@H](C)c8nnc(C)n8-c8sc(C)c(C)c87)cc6)C5)C4)nn3)CC2)ccc1C#N (stereo partly drawn) [Compound I-95] | < 500 |  |  | < 500 | < 500
7 | COc1cc(O[C@H]2C(C)(C)[C@@H](NC(=O)c3cnc(N4CCC5(CC4)CC(Oc4ccc(C6=NC(Cc7ncco7)c7nnc(C)n7-c7sc(C)c(C)c76)cc4)C5)nc3)C2(C)C)ccc1C#N (stereo partly drawn) [III-3, N-[(1r,3s)-3-(4-cyano-3-methoxy-phenoxy)-2,2,4,4-tetramethyl-cyclobutyl]-2-[2-[4-[4,5,13-trimethyl-9-(oxazol-2-ylmethyl)-3-thia-1,8,11,12-tetrazatricyclo[8.3.0.0^2,6]trideca-2 (6),4,7,10,12-pentaen-7-yl]phenoxy]-7-azaspiro[3.5]nonan-7-yl]pyrimidine-5-carboxamide] | < 500 | < 500 | < 500 |  | 
8 | COc1cc(O[C@H]2CC[C@H](NC(=O)c3ccc(N4CC(C)(C)C5(CCN(c6ccc(C7=N[C@@H](C)c8nnc(C)n8-c8sc(C)c(C)c87)cc6)CC5)C4)nn3)CC2)ccc1C#N [Compound I-120] | < 500 | < 500 | < 500 |  | 
9 | COc1cc(O[C@H]2CC[C@H](NC(=O)c3ccc(N4CC5(CC(C#Cc6ccc(C7=NC(Cc8ncco8)c8nnc(C)n8-c8sc(C)c(C)c87)cc6F)C5)C4)nn3)CC2)ccc1C#N (single isomer, unassigned) [Compound I-127] | < 500 |  |  | < 500 | < 500
10 | COc1cc(O[C@H]2CC[C@H](NC(=O)c3ccc(N4CCC5(CCC(Oc6ccc(C7=N[C@@H](C)c8nnc(C)n8-c8sc(C)c(C)c87)cc6)C5)C4)nn3)CC2)ccc1C#N (stereo partly drawn) [Compound I-52] | < 500 |  |  | < 500 | < 500
11 | COc1cc(O[C@H]2CC[C@H](NC(=O)c3ccc(N4CCC5(CCN(c6ccc(C7=N[C@@H](C)c8nnc(C)n8-c8sc(C)c(C)c87)cc6F)C5)C4)nn3)CC2)ccc1C#N (stereo partly drawn) [Compound I-79, N-[4-(4-cyano-3-methoxy-phenoxy)cyclohexyl]-6-[7-[2-fluoro-4-[(9S)-4,5,9,13-tetramethyl-3-thia-1,8,11,12-tetrazatricyclo[8.3.0.0^2,6]trideca-2 (6),4,7,10,12-pentaen-7-yl]phenyl]-2,7-diazaspiro[4.4]nonan-2-yl]pyridazine-3-carboxamide] | < 500 | < 500 | < 500 |  | 
12 | COc1cc(O[C@H]2CC[C@H](NC(=O)c3ccc(N4C[C@H]5CN(c6ccc(C7=N[C@@H](C)c8nnc(C)n8-c8sc(C)c(C)c87)c(F)c6)C[C@H]5C4)nn3)CC2)ccc1C#N [Compound I-77] | < 500 | < 500 | < 500 |  | 
13 | COc1cc(O[C@H]2C(C)(C)[C@H](NC(=O)c3cnc(N4CCC5(CC4)CC(Oc4ccc(C6=N[C@@H](Cc7ncco7)c7nnc(C)n7-c7sc(CO)c(C)c76)cc4)C5)nc3)C2(C)C)ccc1C#N [III-2, N-[(1r,3r)-3-(4-cyano-3-methoxy-phenoxy)-2,2,4,4-tetramethyl-cyclobutyl]-2-[2-[4-[(9S)-4-(hydroxymethyl)-5,13-dimethyl-9-(oxazol-2-ylmethyl)-3-thia-1,8,11,12-tetrazatricyclo[8.3.0.0^2,6]trideca-2 (6),4,7,10,12-pentaen-7-yl]phenoxy]-7-azaspiro[3.5]nonan-7-yl]pyrimidine-5-carboxamide] | < 500 | < 500 | < 500 |  | 
14 | COc1cc(O[C@H]2CC[C@H](NC(=O)c3ccc(N4C[C@]5(F)CN(c6ccc(C7=N[C@@H](Cc8ncco8)c8nnc(C)n8-c8sc(C)c(C)c87)cc6)C[C@]5(F)C4)nn3)CC2)ccc1C#N [Compound I-119] | < 500 | < 500 | < 500 |  | 
15 | COc1cc(O[C@H]2CC[C@H](NC(=O)c3ccc(N4CCC5(CCC(c6ccc(C7=N[C@@H](C)c8nnc(C)n8-c8sc(C)c(C)c87)c(Cl)c6)CC5)C4)nn3)CC2)ccc1C#N (single isomer, unassigned) [Compound I-64] | < 500 | 500 to 1500 | < 500 |  | 
16 | COc1cc(O[C@H]2CC[C@H](NC(=O)c3ccc(N4CC56CCCCC5(CN(c5ccc(C7=N[C@@H](C)c8nnc(C)n8-c8sc(C)c(C)c87)cc5)C6)C4)nn3)CC2)ccc1C#N (stereo partly drawn) [Compound I-78] | < 500 | < 500 | < 500 |  | 
17 | COC[C@@H]1N=C(c2ccc(C3CCC4(CC3)CCN(c3ccc(C(=O)NC5CCC(Oc6ccc(C#N)c(OC(F)(F)F)c6)CC5)nn3)C4)cc2)c2c(sc(C)c2C)-n2c(C)nnc21 (stereo partly drawn) [Compound I-2, N-[4-[4-cyano-3-(trifluoromethoxy)phenoxy]cyclohexyl]-6-[8-[4-[(9R)-9-(methoxymethyl)-4,5,13-trimethyl-3-thia-1,8,11,12-tetrazatricyclo[8.3.0.0^2,6]trideca-2 (6),4,7,10,12-pentaen-7-yl]phenyl]-2-azaspiro[4.5]decan-2-yl]pyridazine-3-carboxamide] | < 500 | < 500 | < 500 |  | 
18 | COc1cc(O[C@H]2CC[C@H](NC(=O)c3ccc(N4CCC5(CCN(c6ccc(C7=NC(Cc8ncco8)c8nnc(C)n8-c8sc(C)c(C)c87)cc6C(F)(F)F)CC5)C4)nn3)CC2)ccc1C#N (stereo partly drawn) [Compound I-126] | < 500 |  |  | > 3000 | > 3000

From US12668599B2, “Heterobifunctional compounds and methods of treating disease” (Halda Therapeutics OpCo, Inc., priority 2023, dated 2026)
